Experimental data from patent publication US20260242398A1, “BENZOPYRIMIDIN-4(3H)-ONES AS PI3K INHIBITORS” (OnKure, Inc., priority 2022, published 2026).
Like-named read-outs stand apart in the source and are kept apart here.

Key:
Assay type in all cases: cell-based
[1] = system: phosphorylation of AKT (pAKT) in SKBR3 cells express WT PI3Ka; experiment: In vitro cell pAKT (Ser473) HTRF, SKBR3 cells
Procedure: (§1) In Vitro Cell pAKT: Determination of IC50 Values for Inhibition of Phosphorylation of AKT (pAKT) in T47D Cells Expressing Mutant PI3Ka (H1047R) Mutation and SKBR3 Cells Express WT PI3Ka.
(§2) T47D or SKBR3 cells were trypsinized, resuspended in culture media and seeded onto assay ready plates. T47D culture media consisted of RPMI, 10% FBS and Insulin (0.2 units/mL). SKBR3 culture media consisted of McCoy's 5a and 10% FBS. Cells were seeded at a density of 5000 cells/well and dispensed in 12.5 uL onto 384 well assay ready plates (Perkin Elmer, 6008238)). Assay ready plates had previously been stamped with 10-point dilutions of compounds of interest, as well as controls. The Echo655 is used to stamp plates at 12.5 nL of compound or DMSO. Cells were grown for 6 hour at 37° Celsius and 5% CO2. After 6 hour, 4 uL of Lysis buffer reagent was added to the plate, which was then centrifuged for 1 minute at 1000 rpm. Then the plate was incubated at room temperature for 30 minutes. After 30 minutes, 4 uL of antibody mix containing Eu Cryptate, d2 Cryptate, and detection buffer, was added to the plate. The plate was centrifuged for 1 minute at 1000 rpm and then incubated overnight at room temperature. The plate was read on an Envision plate reader using the HTRF protocol. The percentage of inhibition of AKT phosphorylation was calculated using the following formula: % Inhibition=100×(pAKTHC−pAKTSample)/(pAKTHC−pAKTLC)), where pAKTHC is obtained from cells treated with 0.1% DMSO only; pAKTLC is obtained from cells treated with 10 uM Alpelisib. The IC50 (concentration achieving 50% inhibition of pAKT) is calculated by fitting the Curve using XWfit (v5.3.1.3), equation 201: Y=Bottom+(Top−Bottom)/(1+10^((Log IC50−X)*HillSlope)).

[2] = system: phosphorylation of AKT (pAKT) in T47D cells expressing mutant PI3Ka (H1047R); experiment: In vitro cell pAKT (Ser473) HTRF, T47D cells
Procedure: as §1, §2

[3] = system: SKBR3 cells express WT PI3Ka; experiment: In vitro cell proliferation (CellTiter-Glo, 72 hours), SKBR3 cells
Procedure: (§3) In Vitro Cell Proliferation: Determination of EC50 Values for Inhibition of Proliferation in T47D Cells Expressing Mutant PI3Ka (H1047R) Mutation and SKBR3 Cells Express WT PI3Ka.
(§4) T47D or SKBR3 cells were trypsinized, resuspended in culture media and seeded onto assay ready plates. T47D culture media consisted of RPMI, 10% FBS and Insulin (0.2 units/mL). SKBR3 culture media consisted of McCoys 5a and 10% FBS. Cells were seeded at a density of 1,500 cells/well and dispensed in 50 uL onto 384 well assay ready plates (Corning, 89089-790). Assay ready plates had previously been stamped with 10-point dilutions of compounds of interest, as well as controls. The Echo655 is used to stamp plates at 40 nL of compound or DMSO. Cells were grown for 72 hours at 37° Celsius and 5% CO2. After 72 hours, cells were equilibrated at room temperature for 15 minutes. 30 uL of CellTiter-Glo reagent is added to the plate, which is then shaken for 30 minutes at temperature at 300-500 rpm. Cells are then read on an Envision plate reader. The percentage of inhibition of proliferation was calculated using the following formula: % Inhibition=100×(LumD−LumSample)/(LumD−LumInh), where D is obtained from cells treated with 0.1% DMSO only; Inh is obtained from cells treated with 10 uM Alpelisib. The effective concentration achieving 50% inhibition of proliferation (EC50) is calculated by fitting the Curve using XWfit (v5.3.1.3), equation 201: Y=Bottom+(Top−Bottom)/(1+10^((Log EC50−X)*HillSlope)).

[4] = system: T47D cells expressing mutant PI3Ka (H1047R); experiment: In vitro cell proliferation (CellTiter-Glo, 72 hours), T47D cells; conditions: inhibition of proliferation, read-out: Avg T-47D EC50
Procedure: as §3, §4

[5] = inhibition of pAKT, 6 hour, read-out: Avg T-47D IC50
[6] = Homo sapiens, SK-BR-3, 6 h, inhibition of pAKT
[7] = Homo sapiens, SK-BR-3, 72 h, inhibition of proliferation
[8] = read-out: Avg T-47D IC50, inhibition of pAKT, 6 hour

IC50 ([1]; inhibition of pAKT, 6 hour)	IC50 [2, 5]	EC50 ([3]; inhibition of proliferation)	EC50 [4]	IC50 [1, 6]	EC50 [3, 7]	EC50 ([4]; Homo sapiens, T47D, 72 h)	IC50 ([2]; Homo sapiens, T47D, 6 h, inhibition of pAKT, read-out: Avg T-47D IC50)	Compound	IC50 ([1]; Homo sapiens, SK-BR-3, inhibition of pAKT, 6 hour)	IC50 [2, 8]	EC50 ([3]; Homo sapiens, SK-BR-3, inhibition of proliferation)
> 15 µM	> 15 µM	2 to 15 µM	2 to 15 µM					Cc1cc(C(C)Nc2ccccc2C(=O)O)c2nc(SCc3ccc(Cl)c(OC(F)(F)F)c3)n(C)c(=O)c2c1 (single isomer, unassigned) [Example 32, 2-((1-(2-((4-chloro-3-(trifluoromethoxy)benzyl)thio)-3,6-dimethyl-4-oxo-3,4-dihydroquinazolin-8-yl)ethyl)amino)benzoic acid]			
> 15 µM	1 to 5 µM	2 to 15 µM	0.001 to 0.5 µM					Cc1cc(C(C)Nc2ccc(Cl)cc2C(=O)O)c2nc(N3Cc4ccc(F)cc4C3)n(C)c(=O)c2c1 (single isomer, unassigned) [Example 14, 5-chloro-2-((1-(2-(5-fluoroisoindolin-2-yl)-3,6-dimethyl-4-oxo-3,4-dihydroquinazolin-8-yl)ethyl)amino)benzoic acid]			
> 15 µM	1 to 5 µM	> 15 µM	2 to 15 µM					Cc1cc(C(C)Nc2ccccc2C(=O)O)c2nc(SCC(C)C)n(C)c(=O)c2c1 (single isomer, unassigned) [Example 40, 2-((1-(2-(isobutylthio)-3,6-dimethyl-4-oxo-3,4-dihydroquinazolin-8-yl)ethyl)amino)benzoic acid]			
> 15 µM	1 to 5 µM	> 15 µM	2 to 15 µM					Cc1cc(C(C)Nc2ccccc2C(=O)O)c2nc(N3CC4(CCCCC4)C3)n(C)c(=O)c2c1 (single isomer, unassigned) [Example 5, 2-((1-(3,6-dimethyl-4-oxo-2-(2-azaspiro[3.5]nonan-2-yl)-3,4-dihydroquinazolin-8-yl)ethyl)amino)benzoic acid]			
	> 15 µM	> 15 µM	2 to 15 µM	> 15 µM				Cc1cc(C(C)Nc2ccccc2C(=O)O)c2nc(NC[C@H](C)c3ccccc3)n(C)c(=O)c2c1 (single isomer, unassigned) [Example 45]			
	5 to 15 µM			> 15 µM	> 15 µM	2 to 15 µM		Cc1cc(C(C)Nc2ccccc2C(=O)O)c2nc(NCc3ccc(Cl)cc3)n(C)c(=O)c2c1 (single isomer, unassigned) [Example 43, 2-((1-(2-((4-chlorobenzyl)amino)-3,6-dimethyl-4-oxo-3,4-dihydroquinazolin-8-yl)ethyl)amino)benzoic acid]			
	> 15 µM		> 15 µM	> 15 µM	> 15 µM			Cc1cc(C(C)Nc2ccccc2C(=O)O)c2nc(N3CC4(CCCCC4)C3)n(C)c(=O)c2c1 (single isomer, unassigned) [Example 6, 2-((1-(3,6-dimethyl-4-oxo-2-(2-azaspiro[3.5]nonan-2-yl)-3,4-dihydroquinazolin-8-yl)ethyl)amino)benzoic acid]			
	1 to 5 µM	> 15 µM	0.5 to 2 µM	> 15 µM				Cc1cc(C(C)Nc2ccccc2C(=O)O)c2nc(N3Cc4ccc(Cl)cc4C3)n(C)c(=O)c2c1 (single isomer, unassigned) [Example 9, 2-((1-(2-(5-chloroisoindolin-2-yl)-3,6-dimethyl-4-oxo-3,4-dihydroquinazolin-8-yl)ethyl)amino)benzoic acid]			
		2 to 15 µM		> 15 µM		2 to 15 µM	> 15 µM	Cc1cc(C(C)Nc2ccccc2C(=O)O)c2nc(Nc3ccc(Cl)cc3)n(C)c(=O)c2c1 (single isomer, unassigned) [Example 41, 2-((1-(2-((4-chlorophenyl)amino)-3,6-dimethyl-4-oxo-3,4-dihydroquinazolin-8-yl)ethyl)amino)benzoic acid]			

Second part, the compound before the results:

Compound	IC50 ([1]; inhibition of pAKT, 6 hour)	IC50 [2, 5]	EC50 ([3]; inhibition of proliferation)	EC50 [4]	IC50 [1, 6]	EC50 [3, 7]	EC50 ([4]; Homo sapiens, T47D, 72 h)	IC50 ([2]; Homo sapiens, T47D, 6 h, inhibition of pAKT, read-out: Avg T-47D IC50)	IC50 ([1]; Homo sapiens, SK-BR-3, inhibition of pAKT, 6 hour)	IC50 [2, 8]	EC50 ([3]; Homo sapiens, SK-BR-3, inhibition of proliferation)
CC(Nc1ccccc1C(=O)O)c1cc(F)cc2c(=O)n(C)c(N3CCN(CC(F)(F)F)CC3)nc12 (single isomer, unassigned) [Example 36, 2-((1-(6-fluoro-3-methyl-4-oxo-2-(4-(2,2,2-trifluoroethyl)piperazin-1-yl)-3,4-dihydroquinazolin-8-yl)ethyl)amino)benzoic acid]	> 15 µM	> 15 µM	> 15 µM	> 15 µM							
CC(Nc1ccc(F)cc1C(=O)O)c1cc(Cl)cc2c(=O)n(C)c(N3CCN(CC(F)(F)F)CC3)nc12 (single isomer, unassigned) [Example 25, 2-((1-(6-chloro-3-methyl-4-oxo-2-(4-(2,2,2-trifluoroethyl)piperazin-1-yl)-3,4-dihydroquinazolin-8-yl)ethyl)amino)-5-fluorobenzoic acid]	> 15 µM	> 15 µM	2 to 15 µM	2 to 15 µM							
Cc1cc(C(C)Nc2ccccc2C(=O)O)c2nc(N3CC[Si](C)(C)CC3)n(C)c(=O)c2c1 (single isomer, unassigned) [Example 1, 2-((1-(2-(4,4-dimethyl-1,4-azasilinan-1-yl)-3,6-dimethyl-4-oxo-3,4-dihydroquinazolin-8-yl)ethyl)amino)benzoic acid]				0.5 to 2 µM					> 15 µM	0.001 to 1 µM	2 to 15 µM
CC(Nc1ccc(F)cc1C(=O)O)c1cc(F)cc2c(=O)n(C)c(N3CCN(CC(F)(F)F)CC3)nc12 (single isomer, unassigned) [Example 34, 5-fluoro-2-((1-(6-fluoro-3-methyl-4-oxo-2-(4-(2,2,2-trifluoroethyl)piperazin-1-yl)-3,4-dihydroquinazolin-8-yl)ethyl)amino)benzoic acid]	5 to 15 µM	> 15 µM	> 15 µM	> 15 µM							
Cc1cc(C(C)Nc2ccccc2C(=O)O)c2nc(N3CC[Si](C)(C)CC3)n(C)c(=O)c2c1 (single isomer, unassigned) [Example 2, 2-((1-(2-(4,4-dimethyl-1,4-azasilinan-1-yl)-3,6-dimethyl-4-oxo-3,4-dihydroquinazolin-8-yl)ethyl)amino)benzoic acid]	> 15 µM		2 to 15 µM	2 to 15 µM						> 15 µM	
CC(Nc1ccc(F)cc1C(=O)O)c1cc(F)cc2c(=O)n(C)c(N3CCN(CC(F)(F)F)CC3)nc12 (single isomer, unassigned) [Example 33, 5-fluoro-2-((1-(6-fluoro-3-methyl-4-oxo-2-(4-(2,2,2-trifluoroethyl)piperazin-1-yl)-3,4-dihydroquinazolin-8-yl)ethyl)amino)benzoic acid]	> 15 µM	0.001 to 1 µM		0.001 to 0.5 µM		> 15 µM					
Cc1cc2c(=O)n(C)c(N3CCN(CC(F)(F)F)CC3)nc2c(C(C)Nc2ccccc2C(=O)O)c1F (single isomer, unassigned) [Example 20, 2-((1-(7-fluoro-3,6-dimethyl-4-oxo-2-(4-(2,2,2-trifluoroethyl)piperazin-1-yl)-3,4-dihydroquinazolin-8-yl)ethyl)amino)benzoic acid]		0.001 to 1 µM		0.5 to 2 µM	> 15 µM	> 15 µM					
